Measurements reported in patent US11155558B2, “Dual mode of action soluble guanylate cyclase activators and phosphodiesterase inhibitors and uses thereof” (TOPADUR PHARMA AG, priority 2017, dated 2021).

Key:
[1] = target: PDE5 enzyme isolated from human platelets (Homo sapiens (Human), UniProt O76074); assay: PDE5 assay (Example 109), formation of 5′GMP from cGMP, SPA; conditions: for % inhibition at 5.0E−09 M: percent inhibition of control enzyme activity at 5.0E−09 M, assay of Example 109;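 for all read-outs here: tritiated 5′GMP counted by scintillation after SPA bead capture, enzyme reaction run 60 min at 22 °C, basal control is the mixture without enzyme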
Procedure: Evaluation of the effects of compounds of the present invention on the activity of the human phosphodiesterase-5 quantified by measuring the formation of 5′GMP from cGMP using PDE5 enzyme isolated from human platelets.
Thereafter, the reaction is initiated by addition of the enzyme and the mixture is incubated for 60 min at 22° C.
For basal control measurements, the enzyme is omitted from the reaction mixture. Following incubation SPA beads are added. After 20 min at 22° C. under shaking, the amount of [3H]5′GMP is quantified with a scintillation counter (Topcount, Packard).
The standard inhibitory reference compound is dipyridamole, which is tested in each experiment at several concentrations to obtain an inhibition curve from which its IC50 value is calculated.

[2] = Measurements of human plasma protein binding; format: in vitro ADME; conditions: for recovery: human
Procedure: An aliquot of 200 μL of human plasma containing test compound was spiked into donor well (red chamber) of the insert. 350 μL of PBS was spiked into receiver well (white chamber) of the insert.
The samples were matrix equilibrated with opposite matrix (25 μL of plasma/buffer sample was matched with 25 μL of blank buffer/plasma). Matrix matched samples were precipitated with 200 μL of acetonitrile containing internal standard. Samples were vortexed at 1000 rpm for 5 min and centrifuged at 4000 rpm for 10 min. Supernatant was separated, diluted 2 fold with water and analysed in LC-MS/MS. TO control samples were processed immediately after the preparation of plasma working stock solutions. These samples serves as a measure for calculating the percentage recovery of test compounds.

Compound	IC50 [1] [nM]	% inhibition at 5.0E−09 M [1] [%]	% Bound in Plasma [2] [%]	fraction unbound [2]	recovery [2] [%]	PDE5 inhibition (in words) ([1]; human cGMP-specific PDE5, refers to Table 1)
CCCOc1ccc(S(=O)(=O)N2CCN(CCO[N+](=O)[O-])CC2)cc1-c1nc2c(CCC)c(/C=N/O)n(CC)c2c(=O)[nH]1 [Compound 1a, (E)-2-(4-((3-(5-ethyl-6-((hydroxyimino)methyl)-4-oxo-7-propyl-4,5-dihydro-3H-pyrrolo[3,2-d]pyrimidin-2-yl)-4-propoxyphenyl)sulfonyl)piperazin-1-yl)ethyl nitrate]	12	20.7				
CCCOc1ccc(S(=O)(=O)N2CCC(CCCO[N+](=O)[O-])CC2)cc1-c1nc2c(CCC)cn(CC)c2c(=O)[nH]1 [Compound 1d, 3-(1-((3-(5-ethyl-4-oxo-7-propyl-4,5-dihydro-3H-pyrrolo[3,2-d]pyrimidin-2-yl)-4-propoxyphenyl)sulfonyl)piperidin-4-yl)propyl nitrate]	> 10	13.4				
CCCc1c(/C=N/O)n(C)c2c(=O)[nH]c(-c3cc(S(=O)(=O)N4CCC(CCO[N+](=O)[O-])CC4)ccc3OCC)nc12 [Compound 2a, (E)-2-(1-((4-ethoxy-3-(6-((hydroxyimino)methyl)-5-methyl-4-oxo-7-propyl-4,5-dihydro-3H-pyrrolo[3,2-d]pyrimidin-2-yl)phenyl)sulfonyl)piperidin-4-yl)ethyl nitrate]	2	13.4				
CCCc1cn(C)c2c(=O)[nH]c(-c3cc(S(=O)(=O)N4CCN(CCCO[N+](=O)[O-])CC4)ccc3OCC)nc12 [Compound 2b, 3-(4-((4-ethoxy-3-(5-methyl-4-oxo-7-propyl-4,5-dihydro-3H-pyrrolo[3,2-d]pyrimidin-2-yl)phenyl)sulfonyl)piperazin-1-yl)propyl nitrate]	2	18.2				
CCCc1cn(C)c2c(=O)[nH]c(-c3cc(S(=O)(=O)N4CCC(CCO[N+](=O)[O-])CC4)ccc3OCC)nc12 [Compound 2c, 2-(1-((4-ethoxy-3-(5-methyl-4-oxo-7-propyl-4,5-dihydro-3H-pyrrolo[3,2-d]pyrimidin-2-yl)phenyl)sulfonyl)piperidin-4-yl)ethyl nitrate]			99.65	0.0035	105	
CCCc1cn(C)c2c(=O)[nH]c(-c3cc(S(=O)(=O)N4CCN(CCO[N+](=O)[O-])CC4)ccc3OCC)nc12 [Compound 2d, 2-(4-((4-ethoxy-3-(5-methyl-4-oxo-7-propyl-4,5-dihydro-3H-pyrrolo[3,2-d]pyrimidin-2-yl)phenyl)sulfonyl)piperazin-1-yl)ethyl nitrate]	1.2	57.8				
CCCOc1ccc(S(=O)(=O)N2CCC(CCO[N+](=O)[O-])CC2)cc1-c1nc2c(CCC)cn(C)c2c(=O)[nH]1 [Compound 3a, 2-(1-((3-(5-methyl-4-oxo-7-propyl-4,5-dihydro-3H-pyrrolo[3,2-d]pyrimidin-2-yl)-4-propoxyphenyl)sulfonyl)piperidin-4-yl)ethyl nitrate]		6.5				
CCCOc1ccc(S(=O)(=O)N2CCC(CCO)CC2)cc1-c1nc2c(CCC)cn(CC)c2c(=O)[nH]1 [Compound 5, 5-ethyl-2-(5-((4-(2-hydroxyethyl)piperidin-1-yl)sulfonyl)-2-propoxyphenyl)-7-propyl-3,5-dihydro-4H-pyrrolo[3,2-d]pyrimidin-4-one]	0.29	74.4	99.87	0.0013	102	much more potent PDE5 inhibitor
CCCOc1ccc(S(=O)(=O)N2CCC(CCO)CC2)cc1-c1nc2c(CCC)c(CO)n(CC)c2c(=O)[nH]1 [Compound 6, 5-ethyl-2-(5-((4-(2-hydroxyethyl)piperidin-1-yl)sulfonyl)-2-propoxyphenyl)-6-(hydroxymethyl)-7-propyl-3,5-dihydro-4H-pyrrolo[3,2-d]pyrimidin-4-one]	2.4					
CCCOc1ccc(S(=O)(=O)N2CCC(CCO)CC2)cc1-c1nc2c(CCC)c(/C=N/O)n(CC)c2c(=O)[nH]1 [Compound 8, (E)-5-ethyl-2-(5-((4-(2-hydroxyethyl)piperidin-1-yl)sulfonyl)-2-propoxyphenyl)-4-oxo-7-propyl-4,5-dihydro-3H-pyrrolo[3,2-d]pyrimidine-6-carbaldehyde oxime]	2.7	71.2				
CCCc1cn(C)c2c(=O)[nH]c(-c3cc(S(=O)(=O)N4CCC(CCO)CC4)ccc3OCC)nc12 [Compound 14, 2-(2-ethoxy-5-((4-(2-hydroxyethyl)piperidin-1-yl)sulfonyl)phenyl)-5-methyl-7-propyl-3,5-dihydro-4H-pyrrolo[3,2-d]pyrimidin-4-one]	0.3		99.43	0.0057	98.9	
CCCOc1ccc(S(=O)(=O)N2CCC(CCCO)CC2)cc1-c1nc2c(CCC)cn(CC)c2c(=O)[nH]1 [Compound 15, 5-ethyl-2-(5-((4-(3-hydroxypropyl)piperidin-1-yl)sulfonyl)-2-propoxyphenyl)-7-propyl-3,5-dihydro-4H-pyrrolo[3,2-d]pyrimidin-4-one]	1.8	50.3				
CCCc1c(/C=N/O)n(C)c2c(=O)[nH]c(-c3cc(S(=O)(=O)N4CCC(CCO)CC4)ccc3OCC)nc12 [Compound 17, (E)-2-(2-ethoxy-5-((4-(2-hydroxyethyl)piperidin-1-yl)sulfonyl)phenyl)-5-methyl-4-oxo-7-propyl-4,5-dihydro-3H-pyrrolo[3,2-d]pyrimidine-6-carbaldehyde oxime]		33.2				
CCCc1cn(C)c2c(=O)[nH]c(-c3cc(S(=O)(=O)N4CCN(CCO)CC4)ccc3OCC)nc12 [Compound 20, 2-(2-ethoxy-5-((4-(2-hydroxyethyl)piperazin-1-yl)sulfonyl)phenyl)-5-methyl-7-propyl-3,5-dihydro-4H-pyrrolo[3,2-d]pyrimidin-4-one]		41.1				
CCCc1cn(C)c2c(=O)[nH]c(-c3cc(S(=O)(=O)N4CCN(CCCO)CC4)ccc3OCC)nc12 [Compound 23, 2-(2-ethoxy-5-((4-(3-hydroxypropyl)piperazin-1-yl)sulfonyl)phenyl)-5-methyl-7-propyl-3,5-dihydro-4H-pyrrolo[3,2-d]pyrimidin-4-one]		36.7				
CCCOc1ccc(S(=O)(=O)N2CCC(CCO)CC2)cc1-c1nc2c(CCC)cn(C)c2c(=O)[nH]1 [Compound 29, 2-(5-((4-(2-hydroxyethyl)piperidin-1-yl)sulfonyl)-2-propoxyphenyl)-5-methyl-7-propyl-3,5-dihydro-4H-pyrrolo[3,2-d]pyrimidin-4-one]		46.4				
CCCOc1ccc(S(=O)(=O)N2CCN(CCO)CC2)cc1-c1nc2c(CCC)cn(C)c2c(=O)[nH]1 [Compound 32, 2-(5-((4-(2-hydroxyethyl)piperazin-1-yl)sulfonyl)-2-propoxyphenyl)-5-methyl-7-propyl-3,5-dihydro-4H-pyrrolo[3,2-d]pyrimidin-4-one]		53.4				
CC(=O)CC(c1ccccc1)c1c(O)c2ccccc2oc1=O (stereo not shown) [Warfarin, reference compound]			97.28	0.0272	101	
CCCc1nn(C)c2c(=O)[nH]c(-c3cc(S(=O)(=O)N4CCN(C)CC4)ccc3OCC)nc12 [sildenafil, reference compound]			96.41	0.0359	104	
